Measurements reported in patent US10584116B2, “Heterocyclic sulfonamide derivative and medicine containing same” (EA Pharma Co., Ltd., priority 2016, dated 2020).

target: human TRPA1 (Homo sapiens (Human), UniProt O75762); test: Measurement of TRPA1 antagonist activity (intracellular calcium increase induced by allylisothiocyanate in 293T cells transfected with human TRPA1); assay type: cell-based; details: 293T cells expressing human TRPA1, allylisothiocyanate stimulation, FLIPR Calcium4 fluorescence; read-out: hTRPA1 IC50
Sequence (O75762 whole entry): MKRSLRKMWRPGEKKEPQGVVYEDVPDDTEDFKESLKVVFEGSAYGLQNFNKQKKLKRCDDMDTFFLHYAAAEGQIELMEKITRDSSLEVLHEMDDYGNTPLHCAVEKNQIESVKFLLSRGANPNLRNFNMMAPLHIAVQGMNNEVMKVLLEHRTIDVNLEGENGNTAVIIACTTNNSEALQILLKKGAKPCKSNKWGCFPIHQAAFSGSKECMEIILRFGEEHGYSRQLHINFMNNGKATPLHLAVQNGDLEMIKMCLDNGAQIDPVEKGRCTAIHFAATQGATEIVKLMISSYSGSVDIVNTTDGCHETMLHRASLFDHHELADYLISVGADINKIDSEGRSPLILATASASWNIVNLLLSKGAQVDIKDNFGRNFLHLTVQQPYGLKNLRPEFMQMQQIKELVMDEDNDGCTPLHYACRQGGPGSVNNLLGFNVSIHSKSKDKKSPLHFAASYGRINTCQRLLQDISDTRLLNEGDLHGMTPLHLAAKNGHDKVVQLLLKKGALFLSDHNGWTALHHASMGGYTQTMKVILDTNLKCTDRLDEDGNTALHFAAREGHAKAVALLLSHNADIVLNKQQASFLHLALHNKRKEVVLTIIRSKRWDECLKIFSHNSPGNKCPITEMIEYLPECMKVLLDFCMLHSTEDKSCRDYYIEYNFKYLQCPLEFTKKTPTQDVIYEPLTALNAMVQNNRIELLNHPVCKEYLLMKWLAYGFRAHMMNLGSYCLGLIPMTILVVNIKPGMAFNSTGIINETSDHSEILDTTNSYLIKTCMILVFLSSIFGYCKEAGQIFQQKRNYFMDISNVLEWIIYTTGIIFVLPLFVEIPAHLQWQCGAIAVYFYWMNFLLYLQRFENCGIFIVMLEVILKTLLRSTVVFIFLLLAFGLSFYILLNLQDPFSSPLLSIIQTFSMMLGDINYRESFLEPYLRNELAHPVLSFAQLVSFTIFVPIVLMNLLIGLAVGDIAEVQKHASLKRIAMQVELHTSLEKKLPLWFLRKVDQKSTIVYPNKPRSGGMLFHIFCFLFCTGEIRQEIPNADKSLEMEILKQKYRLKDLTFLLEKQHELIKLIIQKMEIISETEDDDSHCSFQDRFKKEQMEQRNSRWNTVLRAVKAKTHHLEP
Experimental: Measurement of TRPA1 Antagonist Activity
Human TRPA1 Expression Plasmid
Using cDNA encoding human TRPA1 (GenBank accession No. NM_007332) (manufactured by Kazusa DNA Research Institute, item No. FHC07217) as a template, primer 1 (SEQ ID NO: 1) and primer 2 (SEQ ID NO: 2), PCR by PfuUltra High-Fidelity DNA Polymerase (Stratagene) was performed, and full-length human TRPA1 gene was amplified.
A recognition site (underlined) of restriction enzyme HindIII was added to the 5′ end of human TRPA1 gene, and XbaI site (underlined) was added to the 3′ end of human TRPA1 gene, and GTT of the template sequence was changed to termination codon TAG (bold). The obtained double stranded DNA was enzyme-digested with HindIII and XbaI, and introduced into a multicloning site of expression plasmid pcDNA3.1/zeo(+) (manufactured by Invitrogen) to give a human TRPA1 expression plasmid.
Human embryonic kidney-derived 293T cells were cultured in Dulbecco's Modified Eagle Medium containing 10% fetal bovine serum, 10 unit penicillin, and 10 μg streptomycin. One day before assay, 3×10^6 of 293T cells were plated on a petri dish having a diameter of 10 cm, and cultured in a CO2 incubator for 24 hr. OPTI-MEM I Reduced Serum Media (Invitrogen) (600 μL), Mirus TransIT-293 (Mirus Bio) (18 μL), and human TRPA1 expression plasmid (6 μg) were mixed, the total amount of the mixture was added to the cells on the petri dish to allow for gene transfer. The cells were recovered about for 8 hr later, plated on a poly-D-lysine coated 384 well black/clear bottom plate at 12,000 cells/well, and cultured overnight.
Measurement of Intracellular Calcium Increase
The medium was removed from the 384 well plate, calcium indicator (Molecular Device, trade name: FLIPR Calcium4 Assay Kit) dissolved in HBSS (Thermo Fisher Scientific) (pH 7.2) containing 20 mM HEPES was added (38 μL/well), and the cells were stained in a CO2 incubator for 1 hr. The 384 well plate was stood at room temperature for not less than 15 min, set on FDSS7000 (Hamamatsu Photonics K.K.), and a test substance solution was added at 10 μL/well. After 10 min, allylisothiocyanate solution (12 μL/well) was added, the relative fluorescence intensity was measured for 5 min after addition of the allylisothiocyanate solution.
Test Substance Preparation
Preparation of Test Substance Solution and Allylisothiocyanate Solution
A test substance solution was prepared to have a composition of HBSS (Thermo Fisher Scientific) (pH 7.2) containing 0.48% dimethyl sulfoxide, a test substance at 4.8-fold concentration of the evaluation concentration, 0.1% bovine serum albumin and 20 mM HEPES. An allylisothiocyanate solution was prepared to have a composition of HBSS (Thermo Fisher Scientific) (pH 7.2) containing 0.1% dimethyl sulfoxide, 100 μM allylisothiocyanate, 0.1% bovine serum albumin and 20 mM HEPES.
Calculation of Antagonist Activity
The activity rate of a test substance at each concentration was calculated, wherein the relative fluorescence intensity change of a well free of a test substance and containing allylisothiocyanate is 100% activity rate, and the relative fluorescence intensity change of a well free of a test substance and allylisothiocyanate is 0% activity rate. The inhibitory rate of a test substance at each concentration was calculated by subtracting the activity rate of the test substance from 100% activity rate, and the concentration of a test substance showing 50% inhibitory rate was calculated as IC50 from the sigmoid approximate curve by XLfit (idbs).

Question: For `CC(C)n1c(=O)c(CNC(=O)[C@@H]2[C@@H](O)CCN2S(=O)(=O)c2cc3cc(F)ccc3o2)cn(-c2ccc(C(F)(F)F)cc2)c1=O` [Example 8, (2S,3S)-1-(5-fluorobenzofuran-2-yl)sulfonyl-3-hydroxy-N-[[3-isopropyl-2,4-dioxo-1-[4-(trifluoromethyl)phenyl]pyrimidin-5-yl]methyl]pyrrolidine-2-carboxamide], which IC50 is on record?
Answer: 64 nM

Question: How did the IC50 turn out when `CCn1c(=O)c(CNC(=O)[C@@H]2CCCN2S(=O)(=O)c2cc3cc(F)ccc3o2)cn(-c2ccc(C(F)(F)F)cc2)c1=O` [Example 4, (2S)-1-(5-fluorobenzofuran-2-yl)sulfonyl-N-[[3-ethyl-2,4-dioxo-1-[4-(trifluoromethyl)phenyl]pyrimidin-5-yl]methyl]pyrrolidine-2-carboxamide] was run?
Answer: 11 nM

Question: `CC(C)n1cc(-c2ccc(C(F)(F)F)nc2)cc(CNC(=O)[C@@H]2CCCN2S(=O)(=O)c2cc3ccccc3o2)c1=O` [Example 28, (2S)-1-(benzofuran-2-ylsulfonyl)-N-[[1-isopropyl-2-oxo-5-[6-(trifluoromethyl)-3-pyridyl]-3-pyridyl]methyl]pyrrolidine-2-carboxamide] was tested. Which IC50 did it give?
Answer: 180 nM

Question: For `CC(C)n1c(=O)c(CNC(=O)[C@@H]2CCCN2S(=O)(=O)c2cc3cnccc3o2)cn(-c2ccc(C(F)(F)F)nc2)c1=O` [Example 32, (2S)-1-fro[3,2-c]pyridin-2-ylsulfonyl-N-[[3-isopropyl-2,4-dioxo-1-[6-(trifluoromethyl)-3-pyridyl]pyrimidin-5-yl]methyl]pyrrolidine-2-carboxamide], which IC50 is on record?
Answer: 570 nM

Question: `CC(C)n1c(=O)c(CNC(=O)[C@@H]2CCCN2S(=O)(=O)c2cc3cc(F)ccc3o2)cn(-c2ccc(C(F)(F)F)nc2)c1=O` [Example 30, (2S)-1-(5-fluorobenzofuran-2-yl)sulfonyl-N-[[3-isopropyl-2,4-dioxo-1-[6-(trifluoromethyl)-3-pyridyl]pyrimidin-5-yl]methyl]pyrrolidine-2-carboxamide] was tested. Which IC50 did it give?
Answer: 10 nM

Question: With `CC(C)n1c(=O)c(CNC(=O)[C@@H]2CCCN2S(=O)(=O)c2cc3cc(F)ccc3o2)cn(-c2ccc(F)cc2)c1=O` [Example 39] as the molecule, how does the IC50 read?
Answer: 100 nM

Question: With `C[C@H](NS(=O)(=O)c1cc2cc(F)ccc2o1)C(=O)NCc1cn(-c2ccc(C(F)(F)F)cc2)c(=O)n(C)c1=O` [Example 6, (2S)-2-[(5-fluorobenzofuran-2-yl)sulfonylamino]-N-[[3-methyl-2,4-dioxo-1-[4-(trifluoromethyl)phenyl]-pyrimidin-5-yl]methyl]propanamide] as the molecule, how does the IC50 read?
Answer: 540 nM

Question: With `CC(C)n1cc(CNC(=O)[C@@H]2CCCN2S(=O)(=O)c2cc3c(F)cccc3o2)cc(-c2ccc(C(F)(F)F)cc2)c1=O` [Example 45, (2S)-1-(4-fluorobenzofuran-2-yl)sulfonyl-N-[[1-isopropyl-6-oxo-5-[4-(trifluoromethyl)phenyl]-3-pyridyl]methyl]pyrrolidine-2-carboxamide] as the molecule, how does the IC50 read?
Answer: 86 nM

Question: How did the IC50 turn out when `CC(C)n1c(=O)c(CNC(=O)[C@@H]2CCN2S(=O)(=O)c2cc3cc(F)ccc3o2)cn(-c2ccc(C(F)(F)F)cc2)c1=O` [Example 18, (2S)-1-(5-fluorobenzofuran-2-yl)sulfonyl-N-[[3-isopropyl-2,4-dioxo-1-[4-(trifluoromethyl)phenyl]-pyrimidin-5-yl]methyl]azetidine-2-carboxamide] was run?
Answer: 9 nM

Question: How did the IC50 turn out when `CC(C)n1c(=O)c(CNC(=O)[C@@H]2CCCN2S(=O)(=O)c2ccc(F)cc2)cn(-c2ccc(C(F)(F)F)cc2)c1=O` [Example 12, (2S)-1-(4-fluorophenyl)sulfonyl-N-[[3-isopropyl-2,4-dioxo-1-[4-(trifluoromethyl)phenyl]pyrimidin-5-yl]methyl]pyrrolidine-2-carboxamide] was run?
Answer: 120 nM

Question: Which IC50 does the source give for `CC(C)n1c(=O)c(CNC(=O)[C@@H]2CCCN2S(=O)(=O)c2cc3ccccc3o2)cn(-c2ccc(C(F)(F)F)nc2)c1=O` [Example 29, (2S)-1-(benzofuran-2-ylsulfonyl)-N-[[3-isopropyl-2,4-dioxo-1-[6-(trifluoromethyl)-3-pyridyl]pyrimidin-5-yl]methyl]pyrrolidine-2-carboxamide] here?
Answer: 30 nM

Question: How did the IC50 turn out when `O=C(NCc1ccc(=O)n(-c2ccc(C(F)(F)F)cc2)c1)[C@@H]1CCCN1S(=O)(=O)c1cc2cc(F)ccc2o1` [Example 22, (2S)-1-(5-fluorobenzofuran-2-yl)sulfonyl-N-[[6-oxo-1-[4-(trifluoromethyl)phenyl]-3-pyridyl]methyl]pyrrolidine-2-carboxamide] was run?
Answer: 60 nM

Question: `CC(C)n1cc(-c2ccc(C(F)(F)F)nc2)cc(CNC(=O)[C@@H]2CCCN2S(=O)(=O)c2cc3cc(F)ccc3o2)c1=O` [Example 37, (2S)-1-(5-fluorobenzofuran-2-yl)sulfonyl-N-[[1-isopropyl-2-oxo-5-[6-(trifluoromethyl)-3-pyridyl]-3-pyridyl]methyl]pyrrolidine-2-carboxamide] was tested. Which IC50 did it give?
Answer: 31 nM

Question: Which IC50 does the source give for `CC(C)n1c(=O)c(CNC(=O)[C@@H]2CCCN2S(=O)(=O)c2ccc(Cl)s2)cn(-c2ccc(C(F)(F)F)cc2)c1=O` [Example 11, (2S)-1-[(5-chloro-2-thienyl)sulfonyl]-N-[[3-isopropyl-2,4-dioxo-1-[4-(trifluoromethyl)phenyl]-pyrimidin-5-yl]methyl]pyrrolidine-2-carboxamide] here?
Answer: 33 nM

Question: With `CC(C)n1cc(CNC(=O)[C@@H]2[C@@H](O)CCN2S(=O)(=O)c2cc3cc(F)ccc3o2)cc(-c2ccc(C(F)(F)F)cc2)c1=O` [Example 47, (2S,3S)-1-(5-fluorobenzofuran-2-yl)sulfonyl-3-hydroxy-N-[[1-isopropyl-6-oxo-5-[4-(trifluoromethyl)phenyl]-3-pyridyl]methyl]pyrrolidine-2-carboxamide] as the molecule, how does the IC50 read?
Answer: 230 nM

Question: For `CC(C)n1c(=O)c(CNC(=O)[C@@H]2[C@@H](O)CCN2S(=O)(=O)c2cc3cc(F)ccc3o2)cn(-c2ccc(C(F)(F)F)nc2)c1=O` [Example 31, (2S,3S)-1-(5-fluorobenzofuran-2-yl)sulfonyl-3-hydroxy-N-[[3-isopropyl-2,4-dioxo-1-[6-(trifluoromethyl)-3-pyridyl]pyrimidin-5-yl]methyl]pyrrolidine-2-carboxamide], which IC50 is on record?
Answer: 380 nM

Question: With `CC(C)n1cc(CNC(=O)[C@@H]2CCCN2S(=O)(=O)c2cc3ccccc3o2)cc(-c2ccc(C(F)(F)F)nc2)c1=O` [Example 48, (2S)-1-(benzofuran-2-ylsulfonyl)-N-[[1-isopropyl-6-oxo-5-[6-(trifluoromethyl)-3-pyridyl]-3-pyridyl]methyl]pyrrolidine-2-carboxamide] as the molecule, how does the IC50 read?
Answer: 210 nM

Question: With `O=C(NCc1ccc(=O)n(-c2ccc(C(F)(F)F)cc2)c1)[C@@H]1CCCN1S(=O)(=O)c1cc2ccccc2o1` [Example 14, (2S)-1-(benzofuran-2-ylsulfonyl)-N-[[6-oxo-1-[4-(trifluoromethyl)phenyl]-3-pyridyl]methyl]pyrrolidine-2-carboxamide] as the molecule, how does the IC50 read?
Answer: 160 nM

Question: With `CC(C)n1c(=O)c(CNC(=O)[C@@H]2CCCN2S(=O)(=O)c2cc3ccccc3o2)cn(-c2ccc(Cl)cc2)c1=O` [Example 40, (2S)-1-(benzofuran-2-ylsulfonyl)-N-[[1-(4-chlorophenyl)-3-isopropyl-2,4-dioxo-pyrimidin-5-yl]methyl]pyrrolidine-2-carboxamide] as the molecule, how does the IC50 read?
Answer: 85 nM

Question: How did the IC50 turn out when `CC(C)n1c(=O)c(CNC(=O)[C@@H]2CCCN2S(=O)(=O)c2cc3ccccc3o2)cn(-c2ccc(F)cc2)c1=O` [Example 38, (2S)-1-(benzofuran-2-ylsulfonyl)-N-[[1-(4-fluorophenyl)-3-isopropyl-2,4-dioxo-pyrimidin-5-yl]methyl]pyrrolidine-2-carboxamide] was run?
Answer: 240 nM

Question: How did the IC50 turn out when `CC(C)n1c(=O)c(CNC(=O)[C@@H]2CC(F)(F)CN2S(=O)(=O)c2cc3cc(F)ccc3o2)cn(-c2ccc(C(F)(F)F)cc2)c1=O` [Example 17, (2S)-4,4-difluoro-1-(5-fluorobenzofuran-2-yl)sulfonyl-N-[[3-isopropyl-2,4-dioxo-1-[4-(trifluoromethyl)phenyl]pyrimidin-5-yl]methyl]pyrrolidine-2-carboxamide] was run?
Answer: 46 nM
